Data reported in patent publication US4138554A, “7-[D-α-(4-Hydroxy-1,5-naphthyridine-3-carboxamido)-α-phenyl (and p-hydroxyphenyl)acetamido]-3-carbamoyloxymethyl-3-cephem-4-carboxylic acids” (priority 1977, dated 1979).
Read-outs that look alike come from different tables or passages of the source.

Legend:
Type in all cases: cell-based
Pseudomonas (6 strains) = assay: Mean % relative activity (MIC) vs sulbenicillin, Pseudomonas (6 strains); conditions: Pseudomonas (6 strains), from geometric means of MICs in Table 1
Protocol: (§1) Minimum inhibitory concentrations (MIC) of BB-S520 were determined by serial two-fold agar dilution method using Steers' apparatus on Meuller-Hinton agar plate against 31 test organisms for the primary screening and also against 61 strains of Pseudomonas aeruginosa for the secondary evaluation. The results are shown in Table 1 and Table 2 along with those of BB-S514 and sulbenicillin.
(§2) Minimum inhibitory concentrations (MIC) of cephalosporins in the present study were determined by serial two-fold agar dilution method using Steers' apparatus on Mueller-Hinton agar plate against 31 test organisms for the primary screening and also against 61 strains of Pseudomonas aeruginosa for the secondary evaluation.

E. coli = assay: MIC by serial two-fold agar dilution (Mueller-Hinton agar), E. coli; conditions: Escherichia coli, Table 1
Protocol: as §1, §2

Klebsiella sp. = assay: MIC by serial two-fold agar dilution (Mueller-Hinton agar), Klebsiella sp.; conditions: Klebsiella sp., Table 1; read-out: MIC
Protocol: as §1, §2

K. pneumoniae = assay: MIC by serial two-fold agar dilution (Mueller-Hinton agar), K. pneumoniae; conditions: Klebsiella pneumoniae, K. pneumoniae, Table 1
Protocol: as §1, §2

Pseudomonas aeruginosa = assay: MIC by agar dilution against 61 strains of Pseudomonas aeruginosa, secondary evaluation; conditions: for MIC: Pseudomonas aeruginosa, read-out: MIC
Protocol: as §1, §2

P. vulgaris = assay: MIC by serial two-fold agar dilution (Mueller-Hinton agar), P. vulgaris; conditions: Proteus vulgaris; P. vulgaris, Table 1; read-out: MIC
Protocol: as §1, §2

S. aureus = assay: MIC by serial two-fold agar dilution (Mueller-Hinton agar), S. aureus; conditions: Staphylococcus aureus, read-out: MIC
Protocol: as §1, §2

P. aeruginosa = assay: MIC by serial two-fold agar dilution (Mueller-Hinton agar), P. aeruginosa, primary screening; conditions: Pseudomonas aeruginosa, Table 1, read-out: MIC
Protocol: as §1, §2

CC(=O)OCC1=C(C(=O)O)N2C(=O)C(NC(=O)C(NC(=O)c3cnc4cccnc4c3O)c3ccccc3)C2SC1 (stereo not drawn) [BB-S514]
6.3 µg/mL: MIC (E. coli; E. coli, unnamed strain (6th E. coli line), read-out: MIC) | MIC (K. pneumoniae) | MIC (Pseudomonas aeruginosa; BBRI Pa-No. 1, D15, Table 2) | MIC (Pseudomonas aeruginosa; BBRI Pa-No. 2, VA, Table 2) | MIC (Pseudomonas aeruginosa; BBRI Pa-No. 5, M4865KC, Table 2) | MIC (Pseudomonas aeruginosa; BBRI Pa-No. 8, Table 2) | MIC (Pseudomonas aeruginosa; BBRI Pa-No. 9, Yale, Table 2) | MIC (Pseudomonas aeruginosa; BBRI Pa-No. 11, Table 2) | MIC (Pseudomonas aeruginosa; BBRI Pa-No. 12, Table 2) | MIC (Pseudomonas aeruginosa; BBRI Pa-No. 14, Table 2) | MIC (Pseudomonas aeruginosa; BBRI Pa-No. 18, H8 D121, Table 2) | MIC (Pseudomonas aeruginosa; BBRI Pa-No. 20, Table 2) | MIC (Pseudomonas aeruginosa; BBRI Pa-No. 21, Table 2) | MIC (Pseudomonas aeruginosa; BBRI Pa-No. 23, Table 2) | MIC (Pseudomonas aeruginosa; BBRI Pa-No. 28, CPH10527/72, Table 2) | MIC (Pseudomonas aeruginosa; BBRI Pa-No. 30, Table 2) | MIC (Pseudomonas aeruginosa; BBRI Pa-No. 32, Table 2) | MIC (Pseudomonas aeruginosa; BBRI Pa-No. 34, Table 2) | MIC (Pseudomonas aeruginosa; BBRI Pa-No. 37, Table 2) | MIC (Pseudomonas aeruginosa; BBRI Pa-No. 41, Table 2) | MIC (Pseudomonas aeruginosa; BBRI Pa-No. 43, Table 2) | MIC (Pseudomonas aeruginosa; BBRI Pa-No. 44, Table 2) | MIC (Pseudomonas aeruginosa; BBRI Pa-No. 51, Table 2) | MIC (Pseudomonas aeruginosa; BBRI Pa-No. 52, Table 2) | MIC (Pseudomonas aeruginosa; BBRI Pa-No. 53, Table 2) | MIC (Pseudomonas aeruginosa; BBRI Pa-No. 54, Table 2) | MIC (Pseudomonas aeruginosa; BBRI Pa-No. 55, Table 2) | MIC (Pseudomonas aeruginosa; BBRI Pa-No. 56, Table 2) | MIC (Pseudomonas aeruginosa; BBRI Pa-No. 59, Table 2) | MIC (Pseudomonas aeruginosa; BBRI Pa-No. 61, Table 2) | MIC (Pseudomonas aeruginosa; BBRI Pa-No. 64, Table 2) | MIC (Pseudomonas aeruginosa; BBRI Pa-No. 70, K-Ps102 (CR-102), Table 2) | MIC (Pseudomonas aeruginosa; GN315, BBRI Pa-No. 27, GN315, Table 2) | MIC (S. aureus; S. aureus Smith (2nd line), Table 1) | MIC (S. aureus; S. aureus, unnamed strain (5th S. aureus line), Table 1) | MIC (P. aeruginosa; P. aeruginosa (3rd line)) | MIC (P. aeruginosa; P. aeruginosa (5th line))
0.1 µg/mL: MIC (E. coli; E. coli NIHJ, read-out: MIC)
480%: Mean % Relative Activity (Sulbenicillin = 100%) (Pseudomonas aeruginosa; Ps. aeruginosa (61 strains), from geometric means of MICs in Table 2)
0.4 µg/mL: MIC (E. coli; E. coli, unnamed strain (3rd E. coli line)) | MIC (E. coli; E. coli, unnamed strain (4th E. coli line), read-out: MIC) | MIC (Pseudomonas aeruginosa; BBRI Pa-No. 36, Table 2)
283%: Mean % Relative Activity (Sulbenicillin = 100%) (Pseudomonas (6 strains))
> 100 µg/mL: MIC (E. coli; E. coli, unnamed strain (5th E. coli line), read-out: MIC) | MIC (E. coli; E. coli, unnamed strain (7th E. coli line), read-out: MIC) | MIC (S. aureus; S. aureus, unnamed strain (6th S. aureus line), Table 1)
1.6 µg/mL: MIC (Pseudomonas aeruginosa; BBRI Pa-No. 16, No. 130, Table 2) | MIC (Pseudomonas aeruginosa; BBRI Pa-No. 25, Table 2) | MIC (Pseudomonas aeruginosa; BBRI Pa-No. 31, Table 2)
0.8 µg/mL: MIC (E. coli; E. coli, unnamed strain (9th E. coli line), read-out: MIC)
3.1 µg/mL: MIC (Pseudomonas aeruginosa; BBRI Pa-No. 3, 1449VA, Table 2) | MIC (Pseudomonas aeruginosa; BBRI Pa-No. 17, H6 D114, Table 2) | MIC (Pseudomonas aeruginosa; BBRI Pa-No. 19, Table 2) | MIC (Pseudomonas aeruginosa; BBRI Pa-No. 26, Ps32, Table 2) | MIC (Pseudomonas aeruginosa; BBRI Pa-No. 29, D122, Table 2) | MIC (Pseudomonas aeruginosa; BBRI Pa-No. 39, Table 2) | MIC (Pseudomonas aeruginosa; BBRI Pa-No. 57, Table 2) | MIC (Pseudomonas aeruginosa; BBRI Pa-No. 60, Table 2) | MIC (Pseudomonas aeruginosa; BBRI Pa-No. 65, Table 2) | MIC (Pseudomonas aeruginosa; BBRI Pa-No. 66, Table 2) | MIC (S. aureus; S. aureus BX-1633, Table 1) | MIC (S. aureus; S. aureus Smith (1st line), Table 1) | MIC (P. aeruginosa; P. aeruginosa (1st line)) | MIC (P. aeruginosa; P. aeruginosa (2nd line)) | MIC (P. aeruginosa; P. aeruginosa (6th line))
12.5 µg/mL: MIC (E. coli; E. coli Juhl, read-out: MIC) | MIC (E. coli; E. coli, unnamed strain (8th E. coli line), read-out: MIC) | MIC (Klebsiella sp.) | MIC (Pseudomonas aeruginosa; BBRI Pa-No. 4, H9 D113, Table 2) | MIC (Pseudomonas aeruginosa; BBRI Pa-No. 7, Table 2) | MIC (Pseudomonas aeruginosa; BBRI Pa-No. 15, Table 2) | MIC (Pseudomonas aeruginosa; BBRI Pa-No. 38, Table 2) | MIC (Pseudomonas aeruginosa; BBRI Pa-No. 42, Table 2) | MIC (Pseudomonas aeruginosa; BBRI Pa-No. 58, Table 2) | MIC (Pseudomonas aeruginosa; BBRI Pa-No. 62, Table 2) | MIC (Pseudomonas aeruginosa; BBRI Pa-No. 67, Table 2) | MIC (Pseudomonas aeruginosa; BBRI Pa-No. 68, Table 2) | MIC (Pseudomonas aeruginosa; GN4925, BBRI Pa-No. 45, GN4925, Table 2)
50 µg/mL: MIC (Pseudomonas aeruginosa; BBRI Pa-No. 10, Table 2) | MIC (Pseudomonas aeruginosa; BBRI Pa-No. 24, Table 2)
25 µg/mL: MIC (Pseudomonas aeruginosa; BBRI Pa-No. 6, No. 5, Table 2) | MIC (Pseudomonas aeruginosa; BBRI Pa-No. 33, Table 2) | MIC (Pseudomonas aeruginosa; BBRI Pa-No. 35, Table 2) | MIC (Pseudomonas aeruginosa; BBRI Pa-No. 69, Table 2) | MIC (P. vulgaris) | MIC (S. aureus; S. aureus, unnamed strain (4th S. aureus line), Table 1) | MIC (P. aeruginosa; P. aeruginosa (4th line))
